Laboratory results published in article PMC4869338 (Malaria Journal, 2016).
Where “and” joins values, the source holds several entries; their conditions need not be identical. Equal entries are not always repeated. Entries after “also recorded” stand apart in the source; their conditions may differ. Where two headings read alike, the source gives them in different places.

What was measured:
[1] = humans; cited from earlier work
[2] = cited from earlier work
CYP2D6 = conditions: cited from earlier work
[3] = target: T1, Recombinant human CYP 2D6 (Homo sapiens, UniProt P10635); experiment: biochemical
T1 sequence (P10635 whole entry): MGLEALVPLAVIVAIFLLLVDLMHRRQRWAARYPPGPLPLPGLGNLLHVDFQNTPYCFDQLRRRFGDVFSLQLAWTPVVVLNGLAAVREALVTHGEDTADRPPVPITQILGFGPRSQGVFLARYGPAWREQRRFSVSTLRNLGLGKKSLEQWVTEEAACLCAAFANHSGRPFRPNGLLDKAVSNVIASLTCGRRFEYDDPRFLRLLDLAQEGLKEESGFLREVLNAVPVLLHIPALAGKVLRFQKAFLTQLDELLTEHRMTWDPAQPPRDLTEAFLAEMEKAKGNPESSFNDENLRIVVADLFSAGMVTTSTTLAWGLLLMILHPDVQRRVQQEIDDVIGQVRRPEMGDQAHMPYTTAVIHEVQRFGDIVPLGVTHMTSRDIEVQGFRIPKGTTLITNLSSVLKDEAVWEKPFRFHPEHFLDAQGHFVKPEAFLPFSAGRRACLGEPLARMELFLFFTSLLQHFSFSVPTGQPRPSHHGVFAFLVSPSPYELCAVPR
Procedure: The samples were centrifuged at 15,700×g at 4 °C for 10 min, supernatants collected and analysed by liquid chromatography/tandem mass spectrometry (LC–MS/MS).
Analyte peaks were detected and quantified using a TSQ Quantum triple quadrupole mass spectrometer (Thermo Fisher Scientific, Waltham, MA, USA). Mass spectrometry conditions were optimized for each analyte (see Additional file 1 for masses and ion transitions). […] Samples were analysed with electrospray ionization in positive ion mode (source temperature 350 °C) by selected reaction monitoring at a collision pressure of 1.0 mTorr. Analyte peaks were detected and quantified using the Xcalibur software package.

CYP3A4 = conditions: cited from earlier work
[4] = test system: Plasmodium berghei sporozoites
Text: Drug suspensions were made and transferred to a 20-ml bottle, drawn into a 1-ml syringe, and delivered via oral feeder (18 gauge) to the designated recipient. […] Both liver and blood stages of P. berghei infections were monitored using the in vivo imaging system (IVIS) and flow cytometry as described in [29].

CYP2C9 = test system: CYP2C9; design: method as in PMID 18691982; conditions: cited from earlier work
CYP1A2 = test system: CYP1A2; design: method as in PMID 18691982; conditions: cited from earlier work
CYP2C19 = conditions: cited from earlier work
[5] = cited from earlier work; remark: listed apart in the source
CYP 2D6 = conditions: in vivo; cited from earlier work
[6] = target: T1, Recombinant human CYP 2D6; conditions: sixty-minute incubation; previously reported; cited from earlier work
[7] = test system: primary human hepatocytes; conditions: 240-min incubation; previously reported; cited from earlier work
[8] = Mouse oral pharmacokinetics of primaquine and 5,6-orthoquinone with and without fluoxetine; conditions: mice; oral primaquine 20 mg/kg; fluoxetine 4 mg/kg/day for 3 days
Procedure: Analyte peaks were detected and quantified using a TSQ Quantum triple quadrupole mass spectrometer (Thermo Fisher Scientific, Waltham, MA, USA). […] Chromatographic separations were achieved using a Waters XTerra MS C18 (2.1 × 50 mm, 3.5 μm) column (Milford, MA, USA) with a Phenomenex (4 × 20 mm, 3.5 µm) guard column (Torrance, CA, USA) at a flow rate of 0.35 ml/min. A 7-min linear gradient from 5 to 95 % acetonitrile (0.1 % formic acid) was utilized. Samples were analysed with electrospray ionization in positive ion mode (source temperature 350 °C) by selected reaction monitoring at a collision pressure of 1.0 mTorr. Analyte peaks were detected and quantified using the Xcalibur software package.
Briefly, male, 9–12-weeks old, wild-type, C57BL/6 mice (Taconic Biosciences, Germantown, NY, USA) were used for pharmacokinetic evaluations. On arrival, animals were acclimated for 7 days in quarantine. The animals were housed in a cage maintained at a temperature range of 18–26 °C, 34–68 % relative humidity and a 12-h light/dark cycle. Food and water were provided ad libitum during quarantine and throughout the study. The animals were fed a standard rodent maintenance diet.
Pharmacokinetic studies were performed using oral administration. […] For each timepoint, animals were euthanized and plasma and liver samples collected. […] Supernatant was collected and analysed by LC–MS/MS analyses.

[9] = test system: primary human hepatocytes; experiment: Primaquine metabolism in pooled primary human hepatocytes pre-treated with antidepressants; assay type: in vitro ADME; conditions: antidepressant 10 μM pre-treatment 15 min; primaquine 1 μM; 4-h incubation
Procedure: Cryopreserved, pooled, human, primary hepatocytes were flash thawed in a 37 °C bath for 1 min. One vial of the thawed hepatocytes (5 million cells/vial) was added to 40 ml of pre-warmed thawing buffer, mixed thoroughly by gentle pipetting, and centrifuged at 72×g for 6 min. The supernatant was then aspirated and the pellet resuspended in hepatocyte incubation buffer (InVitroGRO HI media, BioreclamationIVT, Baltimore, MD, USA). The hepatocytes were then seeded onto 12-well culture plates, approximately 7 × 10^5 hepatocytes/ml per well, and incubated in a humidified 5 % CO2/95 % air incubator for 30 min prior to the addition of compounds.
All reactions were stopped by adding an equal volume of acetonitrile. […] The supernatant was collected and 200 μl of sample was loaded on to a 96-well LC–MS/MS plate for analysis. Samples were analysed immediately after sample collection.

| SMILES | Enzymes involved in biotransformation [2] | Enzymes inhibited by antidepressant: CYP2D6 (CYP2D6) | IC50 [3] | Enzymes inhibited by antidepressant: CYP3A4 (CYP3A4) | Enzymes inhibited by antidepressant: CYP2C9 (CYP2C9) | also measured |
| --- | --- | --- | --- | --- | --- | --- |
| CCN(CC)CCCC(C)Nc1ccnc2cc(Cl)ccc12 (stereo not drawn) [chloroquine] |  |  |  |  |  | primaquine exposure on co-administration [1]: significantly higher primaquine exposure |
| CN(C)CCCC1(c2ccc(F)cc2)OCc2cc(C#N)ccc21 (stereo not drawn) [citalopram] | CYP2C19, CYP2D6, and CYP3A4 | CYP2D6 (weak) | 9.28 µM |  |  |  |
| CN(C)CC(c1ccc(O)cc1)C1(O)CCCCC1 (stereo not drawn) [desvenlafaxine] |  |  | ~94 µM and 94.3 µM | CYP3A4 (weak) |  |  |
| CN(C)CCC[C@@]1(c2ccc(F)cc2)OCc2cc(C#N)ccc21 [escitalopram] | CYP2C19, CYP2D6, and CYP3A4 | CYP2D6 (weak) | 7.35 µM |  |  |  |
| CNCCC(Oc1ccc(C(F)(F)F)cc1)c1ccccc1 (stereo not drawn) [fluoxetine] | CYP2D6, CYP2C9, CYP2C19, and CYP3A4 | strong |  | weak to moderate | moderate | effect of fluoxetine co-administration on primaquine anti-malarial efficacy ([4]; fluoxetine 4 mg/kg/day for 5 days with primaquine 20 mg/kg/day for 3 days): reduced primaquine anti-malarial efficacy; also recorded: negatively impacted primaquine efficacy; Enzymes inhibited by antidepressant: CYP1A2 (CYP1A2): weak; Enzymes inhibited by antidepressant: CYP2C19 (CYP2C19): CYP2D6 (strong), CYP2C9 (moderate), CYP2C19, (weak to moderate), CYP3A4 (weak to moderate), CYP1A2 (weak); elimination half-life [5]: long; change of CYP 2D6 phenotype of human subjects (CYP 2D6): from extensive to poor metabolizers |
| NCCC(Oc1ccc(C(F)(F)F)cc1)c1ccccc1 (stereo not drawn) [nor-fluoxetine] |  |  |  |  |  | CYP 2D6 inhibition by major metabolite of fluoxetine (CYP2D6; no reference given): potent CYP 2D6 inhibitor; elimination half-life ([5]; in vivo): long |
| Fc1ccc([C@@H]2CCNC[C@H]2COc2ccc3c(c2)OCO3)cc1 [paroxetine] | CYP2D6 and CYP3A4 | CYP2D6 (strong), CYP1A2 (weak), CYP2C9 (weak), CYP2C19 (weak), CYP3A4 (weak) |  | CYP2D6 (strong), CYP1A2 (weak), CYP2C9 (weak), CYP2C19 (weak), CYP3A4 (weak) | CYP2D6 (strong), CYP1A2 (weak), CYP2C9 (weak), CYP2C19 (weak), CYP3A4 (weak) | Enzymes inhibited by antidepressant: CYP1A2 (CYP1A2): CYP2D6 (strong), CYP1A2 (weak), CYP2C9 (weak), CYP2C19 (weak), CYP3A4 (weak); Enzymes inhibited by antidepressant: CYP2C19 (CYP2C19): CYP2D6 (strong), CYP1A2 (weak), CYP2C9 (weak), CYP2C19 (weak), CYP3A4 (weak) |
| COc1cc(NC(C)CCCN)c2ncccc2c1 (stereo not drawn) [primaquine] |  |  |  |  |  | blood stage parasitaemia status throughout the 31-day experiment ([4]; flow cytometry, P. berghei infected mice): parasitaemia-free; primaquine metabolism signal by CYP 2D6 [6]: > 80%; primaquine metabolism signal in hepatocytes [7]: ~ 40%; pharmacokinetics of parent primaquine upon co-administration with fluoxetine [8]: not drastically altered |
| CN[C@H]1CC[C@@H](c2ccc(Cl)c(Cl)c2)c2ccccc21 [sertraline] | CYP2C9, CYP2C19, CYP2D6, and CYP3A4 |  | 4.35 µM |  | CYP2D6 (weak to moderate), CYP1A2 (weak), CYP2C9 (weak), CYP2C19 (weak), CYP3A4 (weak) |  |
| COc1ccc(C(CN(C)C)C2(O)CCCCC2)cc1 (stereo not drawn) [venlafaxine] |  | CYP2D6 (weak) | 19.1 µM |  |  | inhibition of primaquine metabolism in hepatocytes [9]: no inhibition of primaquine metabolism |
